# Laboratory results published in patent US9791449B2, “Ovarian cancer stem cells and methods of isolation and uses thereof” (THE GENERAL HOSPITAL CORPORATION, priority 2011, dated 2017).
# Experiments:
# [1] = system: ovarian cancer cells marked by CD44, CD24, and Epcam (3+); conditions: after treatment with chemotherapeutics; cited from earlier work
# OVCAR-5 cells = test: Cell proliferation assay in monolayer (trypan blue count plus flow cytometry); type: cell-based, human; conditions: OVCAR-5, cisplatin 0.2, 0.5 and 1 μM, 3 d
# Protocol: OVCAR-5 cells were seeded in T-75 flasks at different densities (1.6×10^6, 1.2×10^6, 0.8×10^6 cells) with DMEM in 10% FCS, incubated for 24 h, and then treated with either PBS (control) or 60 nM doxorubicin for 24, 48, and 72 h. Cells seeded at 0.8×10^6 were also treated with cisplatin (0.2, 0.5, 1 μM) for 72 h. Harvested total viable cells were counted by trypan blue staining in a hemocytometer and stained with antihuman CD24-PE, anti-mouse/human CD44-APC/Cy7, anti-human Epcam-APC, and anti-human Ecadherin-FITC. Flow cytometry was performed to analyze for the absolute number of 3+/Ecad− and 3+/Ecad+ cells, which were calculated from the total viable cell numbers by analyzing the percentage of each population adjusted for seeding density (1×, 1.5×, and 2×, respectively).
SMILES,relative numbers of 3+ enriched population compared to 3− cells [1],proliferation of total viable cells (OVCAR-5 cells),proliferation of 3+Ecad− population (OVCAR-5 cells; absolute cell number),proliferation of 3−Ecad+ population (OVCAR-5 cells; absolute cell number),"proliferation of 3+Ecad− population (OVCAR-5 cells; absolute cell number, listed as Cisplatin)"
N.N.[Cl][Pt][Cl] [cisplatin],increased,inhibits proliferation,increased,inhibits proliferation,stimulates
CC(=O)O[C@H]1C(=O)[C@@]2(C)[C@H]([C@H](OC(=O)c3ccccc3)[C@]3(O)C[C@H](OC(=O)[C@H](O)[C@@H](NC(=O)c4ccccc4)c4ccccc4)C(C)=C1C3(C)C)[C@]1(OC(C)=O)CO[C@@H]1C[C@@H]2O [paclitaxel],increased,,,,
